Values of other authors, collected in patent US20110124713A1, “SAM-II RIBOSWITCH AND USES THEREOF” (The Regents of the University of Colorado, A body Corporate, priority 2007, published 2011).

Tested on: SAM-II riboswitch
Settings: absence vs presence of SAM; nucleotides G8-U12 in L1

Structure (SMILES): C[S+](CC[C@H](N)C(=O)O)C[C@H]1O[C@@H](n2cnc3c(N)ncnc32)[C@H](O)[C@@H]1O (stereo partly shown) [SAM, S-adenosylmethionine]
- ligand-dependent protections in in-line probing: strong ligand-dependent protections
